# Data published in patent US8114991B2, “Amino-1,3,5-triazines N-substituted with chiral bicyclic radicals, process for their preparation, compositions thereof, and their use as herbicides and plant growth regulators” (Bayer Cropscience AG, priority 2003, dated 2012).
# Columns and labels:
# [1] = tested on: harmful plants such as Stellaria media, Lolium multiforum, Amaranthus retroflexus, Sinapis alba, Avena sativa and Setaria viridis; test: Pre-emergence effect on weeds (greenhouse pot test); type: in vivo; details: application rate of 1 kg or less of active ingredient per hectare; scored after 3 to 4 weeks by comparison with untreated controls
# Method in brief: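 Seeds or rhizome pieces sown in sandy loam; test compounds (wettable powder or emulsion concentrate) applied pre-emergence to soil surface as aqueous suspension/emulsion at various dosages, 600 to 800 l water/ha. Greenhouse; plant/emergence damage scored visually after 3 to 4 weeks versus untreated controls.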
# [2] = tested on: harmful plants such as Sinapis alba, Echinochloa crus-galli, Lolium multiflorum, Stellaria media, Cyperus iria, Amaranthus retroflexus, Setaria viridis, Avena …; test: Post-emergence effect on weeds (greenhouse pot test); type: in vivo; details: application rate of 2 kg or less of active ingredient per hectare; treated in the three-leaf stage; scored after approx. 3 to 4 weeks by comparison with untreated controls
SMILES,pre-emergence control of harmful plants (plant or emergence damage scored visually) [1],herbicidal post-emergence activity against harmful plants (scored visually) [2]
CCCCc1nc(N)nc(N[C@@H]2CCCc3ccc(CC)cc32)n1 [Compound 8.257],very good pre-emergence control,very good herbicidal post-emergence activity
COCc1nc(N)nc(N[C@@H]2CCCc3c(C)cc(C)cc32)n1 [Compound 8.253],very good pre-emergence control,very good herbicidal post-emergence activity
Cc1ccc2c(c1)[C@H](Nc1nc(N)nc(CCSC(F)(F)F)n1)CCC2 [Compound 8.251],very good pre-emergence control,very good herbicidal post-emergence activity
C[C@H](F)c1nc(N)nc(N[C@@H]2CCOc3ccccc32)n1 [Compound 3.20],very good pre-emergence control,very good herbicidal post-emergence activity
COc1ccc2c(c1)[C@H](Nc1nc(N)nc(C(C)(C)F)n1)CC2 [Compound 8.243],very good pre-emergence control,very good herbicidal post-emergence activity
CCc1nc(N)nc(N[C@@H]2CCOc3ccc(C)cc32)n1 [Compound 8.44],very good pre-emergence control,very good herbicidal post-emergence activity
CCc1nc(N)nc(N[C@@H]2CCc3ccc(OC)cc32)n1 [Compound 8.244],very good pre-emergence control,very good herbicidal post-emergence activity
C[C@@H]1Cc2ccccc2[C@@H]1Nc1nc(N)nc([C@@H](C)F)n1 [Compound 5.1],very good pre-emergence control,very good herbicidal post-emergence activity
Cc1ccc2c(c1)[C@H](Nc1nc(N)nc(C(C)F)n1)CC2 (stereo partly shown) [Compound 10.2],very good pre-emergence control,very good herbicidal post-emergence activity
Cc1ccc2c(c1)[C@H](Nc1nc(N)nc(C(C)C)n1)CC2 [Compound 8.67],very good pre-emergence control,very good herbicidal post-emergence activity
CCc1nc(N)nc(N[C@H]2c3ccccc3C[C@@H]2C)n1 [Compound 7.74],very good pre-emergence control,very good herbicidal post-emergence activity
CCc1nc(N)nc(N[C@@H]2CCc3ccc(F)cc32)n1 [Compound 8.26],very good pre-emergence control,very good herbicidal post-emergence activity
Cc1nc(N)nc(N[C@H]2c3cc(F)ccc3C[C@@H]2C)n1 [Compound 7.3],very good pre-emergence control,very good herbicidal post-emergence activity
CCC(F)c1nc(N)nc(NC2CCCc3c(C)cc(C)cc32)n1 (mixture of isomers) [Compound 10.68],very good pre-emergence control,very good herbicidal post-emergence activity
